Patent publication US12616201B2, “Herbicidal compositions comprising isoxaflutole” (BASF SE, priority 2024, dated 2026)

Assays:
Format in all cases: in vivo
Zea mays = assay: Post-emergence application in field trials, ZEAMX
Description: (§1) In the examples below, using the method of S. R. Colby (1967) “Calculating synergistic and antagonistic responses of herbicide combinations”, Weeds 15, p. 22ff., the value E, which is expected if the activity of the individual active compounds is only additive, was calculated:
(§2) [formula] • where • X=percent activity using active herbicide A at an application rate a; • Y=percent activity using active herbicide B (i.e. isoxaflutole) at an application rate b; • E=expected activity (in %) by A+B at application rates a+b.
(§3) If the value found experimentally is higher than the value E calculated according to Colby, a synergistic effect is present.
(§4) On field test sites, natural weed infestation or seeded weeds were treated post-emergence of the weeds.
(§5) In the field trials, the weeds were treated as indicated below.
(§6) In the following experiments, the herbicidal activity for the individual herbicidal compositions (solo and mixture applications) was assessed at the indicated days after treatment (DAT). The assessments for the damage on undesired weeds caused by the composition was carried out using a scale from 0 to 100%, compared to the untreated control plants. Here, 0 means no damage and 100 means complete destruction of the plants.
(§7) Herbicide A-1 and isoxaflutole (240 g/l SC) were, together with addition of 0.25 v/v % MSO (methylated sed oil) as adjuvant, formulated in water as distribution medium (water volume 200 l/ha) and sprayed with commercial flat fan nozzles.
(§8) Herbicide A-1 and isoxaflutole (240 g/l SC, Balance Flexx®) were, together with addition of 0.25 v/v % MSO (methylated sed oil) as adjuvant, formulated in water as distribution medium (water volume 200 l/ha) and sprayed with commercial flat fan nozzles.
(§9) Herbicide A-1, isoxaflutole (240 g/l SC) and saflufenacil (342 g/l) were, together with addition of 0.25 v/v % MSO (methylated sed oil) as adjuvant, formulated in water as distribution medium (water volume 200 l/ha) and sprayed with commercial flat fan nozzles.
(§10) Herbicide A-1, isoxaflutole (240 g/l SC), saflufenacil (342 g/l) and pyroxasulfone were, together with addition of 0.25 v/v % MSO (methylated sed oil) as adjuvant, formulated in water as distribution medium (water volume 200 l/ha) and sprayed with commercial flat fan nozzles.

Datura stramonium = assay: Post-emergence application in field trials, DATST
Description: as §1, §2, §3, §4, §5, §6, §7, §9

Euphorbia heterophylla = assay: Post-emergence application in field trials, EPHHL; details: Table 1.1; EPHHL growth stage 35; 21 DAT; 50 g ai/ha
Description: as §1, §2, §3, §4, §5
as §6, with “the plants. […]” for “the plants.”

Amaranthus hybridus = assay: Post-emergence application in field trials, AMACH; details: Table 1.1; AMACH growth stage 35; 21 DAT; 25 g ai/ha
Description: as §1, §2, §3, §4, §5
as §6, with “the plants. […]” for “the plants.”

Ipomoea triloba = assay: Post-emergence application in field trials, IPOTR; details: Table 1.1; IPOTR growth stage 35; 21 DAT; 25 g ai/ha
Description: as §1, §2, §3, §4, §5
as §6, with “the plants. […]” for “the plants.”

Spermacoce latifolia = assay: Post-emergence application in field trials, BOILF; details: Table 1.1, BOILF growth stage 40, 21 DAT
Description: as §1, §2, §3, §4, §5, §6
Herbicide A-1 and isoxaflutole (75% WG) were, together with addition of 0.5 v/v % MSO (methylated sed oil) as adjuvant, formulated in water as distribution medium (water volume 200 l/ha) and sprayed with commercial flat fan nozzles.

Echinochloa crus-galli = assay: Post-emergence application in field trials, ECHCG
Description: as §1, §2, §3, §4, §5, §6, §7, §8, §9, §10

Hordeum vulgare = assay: Post-emergence application in field trials, HORVX; details: HORVX growth stage 23-29
Description: as §1, §2, §3, §4, §5, §6, §8

Abuthilon theophrasti = assay: Post-emergence application in field trials, ABUTH; details: ABUTH growth stage 14-16, 18 g ai/ha
Description: as §1, §2, §3, §4, §5, §6, §8

Amaranthus retroflexus = assay: Post-emergence application in field trials, AMARE; details: Table 3.4; AMARE growth stage 31-49; 42 DAT; 18 g ai/ha
Description: as §1, §2, §3, §4, §5, §6, §8, §10

Glycine max = assay: Post-emergence application in field trials, GLXMA; details: GLXMA growth stage 13
Description: as §1, §2, §3, §4, §5, §6, §7

Setaria verticillata = assay: Post-emergence application in field trials, SETVE; details: SETVE growth stage 21-23, 12.5 g ai/ha
Description: as §1, §2, §3, §4, §5, §6, §7, §8

CCOC(=O)COc1ccccc1Oc1nc(-n2c(=O)cc(C(F)(F)F)n(C)c2=O)c(F)cc1Cl [A-1, ethyl 2-[2-[[3-chloro-5-fluoro-6-[3-methyl-2,6-dioxo-4-(trifluoromethyl)pyrimidin-1-yl]-2-pyridyl]oxy]phenoxy]acetate]
% herbicidal activity (Zea mays; Table 2.1, ZEAMX growth stage 15-16, 7 DAT, 18 g ai/ha): 85% | % herbicidal activity (Zea mays; Table 3.2, ZEAMX growth stage 15-16, 21 DAT, 18 g ai/ha): 75% | % herbicidal activity (Zea mays; Table 3.3, ZEAMX growth stage 15-16, 28 DAT, 18 g ai/ha): 60% | % herbicidal activity (Zea mays; Table 4.1, ZEAMX growth stage 15-16, height 25-30 cm, 7 DAT, 12.5 g ai/ha): 40% | % herbicidal activity (Zea mays; Table 4.1, ZEAMX growth stage 15-16, height 25-30 cm, 7 DAT, 18 g ai/ha): 50% | % herbicidal activity (Zea mays; Table 5.10, 7 DAT, height 25-30 cm, A-1 12.5 g ai/ha): 85% | % herbicidal activity (Zea mays; Table 5.10, 7 DAT, height 25-30 cm, A-1 18 g ai/ha): 85% | % herbicidal activity (Zea mays; Table 5.11, 7 DAT, height 25-30 cm, A-1 12.5 g ai/ha): 85% | % herbicidal activity (Zea mays; Table 5.11, 7 DAT, height 25-30 cm, A-1 18 g ai/ha): 85% | % herbicidal activity (Zea mays; Table 5.12, 7 DAT, height 25-30 cm, A-1 12.5 g ai/ha): 85% | % herbicidal activity (Zea mays; Table 5.12, 7 DAT, height 25-30 cm, A-1 18 g ai/ha): 85% | % herbicidal activity (Datura stramonium; Table 2.1, DATST growth stage 14-16, 7 DAT, 18 g ai/ha): 75% | % herbicidal activity (Datura stramonium; Table 2.3, DATST growth stage 14-16, 21 DAT, 18 g ai/ha): 70% | % herbicidal activity (Datura stramonium; Table 4.2, DATST growth stage 14-16, height 5-10 cm, 42 DAT, 12.5 g ai/ha): 55% | % herbicidal activity (Datura stramonium; Table 4.2, DATST growth stage 14-16, height 5-10 cm, 42 DAT, 18 g ai/ha): 70% | % herbicidal activity (Euphorbia heterophylla): 86% | % herbicidal activity (Amaranthus hybridus): 84% | % herbicidal activity (Ipomoea triloba): 61% | % herbicidal activity (Spermacoce latifolia; 25 g ai/ha): 81% | % herbicidal activity (Spermacoce latifolia; 50 g ai/ha): 95% | % herbicidal activity (Echinochloa crus-galli; Table 2.1, ECHCG growth stage 23-30, 7 DAT, 12.5 g ai/ha): 30% | % herbicidal activity (Echinochloa crus-galli; Table 2.1, ECHCG growth stage 23-30, 7 DAT, 18 g ai/ha): 30% | % herbicidal activity (Echinochloa crus-galli; Table 3.1, ECHCG growth stage 23-30, 7 DAT, 18 g ai/ha): 30% | % herbicidal activity (Echinochloa crus-galli; Table 3.2, ECHCG growth stage 23-30, 21 DAT, 12.5 g ai/ha): 20% | % herbicidal activity (Echinochloa crus-galli; Table 4.1, ECHCG growth stage 23-30, height 15-20 cm, 7 DAT, 12.5 g ai/ha): 30% | % herbicidal activity (Echinochloa crus-galli; Table 4.1, ECHCG growth stage 23-30, height 15-20 cm, 7 DAT, 18 g ai/ha): 30% | % herbicidal activity (Echinochloa crus-galli; Table 5.11, 7 DAT, height 15-20 cm, A-1 12.5 g ai/ha): 30% | % herbicidal activity (Echinochloa crus-galli; Table 5.11, 7 DAT, height 15-20 cm, A-1 18 g ai/ha): 30% | % herbicidal activity (Hordeum vulgare; Table 3.1, 7 DAT, 12.5 g ai/ha): 70% | % herbicidal activity (Hordeum vulgare; Table 3.1, 7 DAT, 18 g ai/ha): 80% | % herbicidal activity (Hordeum vulgare; Table 3.2, 21 DAT, 12.5 g ai/ha): 90% | % herbicidal activity (Abuthilon theophrasti; Table 3.1, 7 DAT): 90% | % herbicidal activity (Abuthilon theophrasti; Table 3.2, 21 DAT): 92% | % herbicidal activity (Abuthilon theophrasti; Table 3.4, 42 DAT): 90% | % herbicidal activity (Amaranthus retroflexus): 70% | % herbicidal activity (Glycine max; Table 2.1, 7 DAT, 18 g ai/ha): 80% | % herbicidal activity (Glycine max; Table 2.2, 21 DAT, 12.5 g ai/ha): 80% | % herbicidal activity (Glycine max; Table 2.2, 21 DAT, 18 g ai/ha): 80% | % herbicidal activity (Glycine max; Table 2.3, 21 DAT, 12.5 g ai/ha): 75% | % herbicidal activity (Setaria verticillata; Table 2.1, 7 DAT): 60% | % herbicidal activity (Setaria verticillata; Table 3.4, 42 DAT): 30%
